Assay results taken from paper PMC7614683, “A small molecule PI3Kα activator for cardioprotection and neuroregeneration” (Nature, 2023).

What was measured:
[1] = tested on: PI3Kα-KO MEFs transiently transfected with PIK3CA constructs; assay: pAKT S473 in PI3Kα-KO MEFs transfected with p110α-WT or p110α-mutants; type: cell-based, mouse; conditions: 1938 5 μM
Source text: Flag-PIK3R1 (a kind gift of Neil Vasan), PIK3CA-WT and mutant PIK3CA (D603K, L1006R, F1016S and L1006R/F1016S) were cloned into pcDNA3.4TOPO. pcDNA3-eGFP was used as a control for transfection efficiency and is available on Addgene repository upon request (Plasmid #13031). The mutations in PIK3CA were introduced by site-directed mutagenesis according to published commercial protocols using NEBuilder HiFi DNA Assembly Master Mix (NEB E2621). For each mutation, a pair of primers were designed to incorporate a mutation within the gene, with the resulting PCR products containing a 20 bp overlap and the desired mutations. The DpnI-treated and purified PCR products were combined with the linearized vector and treated with the NEBuilder HiFi DNA Assembly Master Mix. Following transformation, single colonies were grown and purified with QIAprep spin Miniprep kit (Qiagen 27106). All plasmids were sequenced for verification.
eGFP, Flag-PIK3R1, PIK3CA-WT and mutant PIK3CA (D603K, L1006R, F1016S, L1006R/F1016S) plasmids were used for transient transfection. Pik3ca-KO MEFs cells were seeded at 70-80% confluency in 6-well plate at 100,000 cells per well. […]

[2] = tested on: 133 protein kinases and 7 lipid kinases; assay: SelectScreen kinase profiling, whole panel; type: biochemical; conditions: 1 μM of 1938
Method: 133 protein kinases and 7 lipid kinases were counterscreened, with 1938 used at 1 μM, using the Adapta, Lantha and Z-LYTE assays (SelectScreen Kinase Profiling Service; Thermofisher – experimental details of these assays can be found here: https://www.thermofisher.com/uk/en/home/industrial/pharma-biopharma/drug-discovery-development/target-and-lead-identification-and-validation/kinasebiology/kinase-activity-assays.html. The tree represention in KinMap[59] generated courtesy of Cell Signaling Technology, Inc. (www.cellsignal.com). mTORC1 (mTOR/RAPTOR/LST8) protein complex and ATM kinase and substrates were produced as previously described[57],[60]. Screening of 1938 was conducted using SuperSep Phos-Tag 50 μmol/l 100 x 100 x 6.6 mm 17-well (192-18001/199-18011) gels. For ATM assays, 100 nM ATM was incubated for 30 min at 30°C with 5 μM GST-p53 and 1 mM ATP, in the absence or presence of 200 μM 1938 in ATM Kinase Buffer (50 mM HEPES pH 7.5, 100 mM NaCl, 10% glycerol, 2 mM […], 5 mM MgCl2). As a positive control for ATM activation, the same reaction was carried out with 100 nM ATM/5 μM GST-p53/1 mM ATP in the presence of 100 nM Mre11-Rad50-Nbs1 (MRN) complex, a known activator of ATM[61]. […] Gels were then stained using InstantBlue™ Coomassie, and quantified using BioRad Image Lab Software. […]

rat sciatic nerve = assay: pAkt generation in exposed rat sciatic nerves; type: in vivo; conditions: direct injection or bathing, 1938 5 μM, 30 min
Method: To assess if 1938 could induce pAkt generation in exposed rat sciatic nerves, adult male Sprague Dawley rats (>250g; n=2) were anaesthetised using isoflurane, the left sciatic nerve was exposed and injected with 2 μl vehicle (sterile dH2O) or 1938 (5 μM in sterile dH2O). Meanwhile the right sciatic nerve was exposed and bathed in 250 μl of vehicle (sterile dH2O) or 1938 (5 μM in sterile dH2O). Each animal received one vehicle and one compound treatment. The treatments were left on for 30 min prior to washing the bathed nerves with sterile PBS and culling via sodium pentobarbital injection according to local regulations. Nerves were then harvested, washed in fresh 4°C PBS and stored in a fresh vial before snap freezing in liquid nitrogen. Frozen sciatic nerves were homogenised in RIPA buffer supplemented with protease and phosphatase inhibitors using a mortar and pestle homogeniser. The subsequent crude lysates were centrifuged at 10,000xg for 10 min at 4°C, the supernatant harvested and stored at -80°C prior to automated western blot (Wes) analysis for pAkt and controls (Extended Data Fig. 9a; bottom panel).

CCN1CCN(c2ccc(Nc3cc(Nc4cccc5c4N(C(C)=O)CC5)ccn3)cc2)CC1 [Compound 1938]
pAKT^S473 stimulation after expression of WT PI3Kα [1]: restored 1938-mediated pAKT^S473 stimulation | pAKT^S473 induction after expression of 1938-resistant p110α-mutants ([1]; D603K, L1006R, F1016S, L1006R/F1016S): none of the p110α-mutants resistant to 1938-activation in in vitro kinase assays showed a response | effect on PI3Kβ, PI3Kγ, PI3Kδ, PI3K-C2α, Vps34, PI4Kβ, mTOR and DNA-PK [2]: did not affect the activity | inhibition of 13 protein kinases of the panel [2]: 25-50% | pAKT in exposed sciatic nerves (rat sciatic nerve): pAKT induction
